Measured values taken from patent publication US8772323B2, “Benzoxazole- and tetrahydrobenzoxazole-substituted pyridazinones as GPR119 agonists” (Boehringer Ingelheim International GmbH, priority 2010, dated 2014).
Structures can show the parent of a compound that is named as a salt.

Target: human GPR119 (Homo sapiens (Human), UniProt Q8TDV5)
Test: AlphaScreen cAMP assay in Min-6/hGPR119 cells (GPR119 activation, intracellular cAMP)
Assay type: cell-based
Conditions: MIN6 cells stably transfected with human GPR119; 45 minutes' incubation at RT; AlphaScreen cAMP Assay Kit
Procedure, shortened: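 MIN6 cells stably expressing human GPR119 plated 10000 cells/well and held 24 h at 37° C. Compounds applied in stimulating buffer, pH 7.4, with 0.5 mM IBMX, 0.1% BSA, 1% DMSO final, for 45 min at RT. Intracellular cAMP read by AlphaScreen.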

Chain of human GPR119 (Q8TDV5 whole entry): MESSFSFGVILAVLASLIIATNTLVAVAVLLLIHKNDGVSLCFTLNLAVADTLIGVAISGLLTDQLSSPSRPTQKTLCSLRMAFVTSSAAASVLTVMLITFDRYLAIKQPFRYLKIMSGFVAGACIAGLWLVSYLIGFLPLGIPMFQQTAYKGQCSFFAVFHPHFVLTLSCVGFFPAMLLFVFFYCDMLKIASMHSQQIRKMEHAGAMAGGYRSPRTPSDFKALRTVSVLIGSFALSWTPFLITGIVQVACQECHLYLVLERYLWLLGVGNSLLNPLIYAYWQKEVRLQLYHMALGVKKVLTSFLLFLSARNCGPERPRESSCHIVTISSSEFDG

Row | SMILES | EC50 [nM]
1 | O=C1NN=C(c2ccc3nc(-c4ccc(F)cc4)oc3c2)C2CCC12 (centres unmarked) [Example 19, 5-[2-(4-fluoro-phenyl)-benzoxazol-6-yl]-3,4-diaza-bicyclo[4.2.0]oct-4-en-2-one] | 469
2 | CCC[C@H]1C(=O)NN=C(c2ccc3nc(C4CC4)oc3c2)[C@@H]1C (stereo in doubt) [Example 253, 6-(2-cyclopropyl-benzoxazol-6-yl)-5-methyl-4-propyl-4,5-dihydro-2H-pyridazin-3-one] | 299
3 | CCC1CC(=O)NN=C1c1ccc2nc(-c3ccc(OCC(=O)N(C)C)cc3)oc2c1 (centres unmarked) [Example 41, 2-{4-[6-(4-ethyl-6-oxo-1,4,5,6-tetrahydro-pyridazin-3-yl)-benzoxazol-2-yl]-phenoxy}-N,N-dimethyl-acetamide] | 1520
4 | CCC[C@H]1C(=O)NN=C(c2ccc3nc(-c4cc(C)cs4)oc3c2)[C@@H]1C (relative stereo) [Example 186, trans-5-methyl-6-[2-(4-methyl-thiophen-2-yl)-benzoxazol-6-yl]-4-propyl-4,5-dihydro-2H-pyridazin-3-one] | 88
5 | COC(=O)c1cccc(-c2nc3ccc(-c4n[nH]c(=O)cc4C)cc3o2)c1 [Example 254, methyl 3-[6-(4-methyl-6-oxo-1,6-dihydro-pyridazin-3-yl)-benzoxazol-2-yl]-benzoate] | 8950
6 | CO[C@H]1CC(=O)NN=C1c1ccc2nc(-c3ccccc3)oc2c1 [Example 28, (5S)-5-methoxy-6-(2-phenyl-1,3-benzoxazol-6-yl)-2,3,4,5-tetrahydropyridazin-3-one] | 213
7 | O=C1NN=C(c2ccc3nc(-c4ccccc4)oc3c2)C2CCC12 (centres unmarked) [Example 10, 5-(2-phenyl-benzoxazol-6-yl)-3,4-diaza-bicyclo[4.2.0]oct-4-en-2-one] | 365
8 | CCC[C@H]1C(=O)NN=C(c2ccc3nc(-c4ccc(F)cc4)oc3c2)[C@@H]1C (relative stereo) [Example 182, trans-6-[2-(4-fluoro-phenyl)-benzoxazol-6-yl]-5-methyl-4-propyl-4,5-dihydro-2H-pyridazin-3-one] | 116
9 | CCC1CC(=O)NN=C1c1ccc2nc(-c3ccc(OCc4cncnc4)cc3)oc2c1 (centres unmarked) [Example 59, 5-ethyl-6-{2-[4-(pyrimidin-5-ylmethoxy)-phenyl]-benzoxazol-6-yl}-4,5-dihydro-2H-pyridazin-3-one] | 1590
10 | CCC1CC(=O)NN=C1c1ccc2nc(-c3ccc(OC)c(OC)c3)oc2c1 (centres unmarked) [Example 92, 6-[2-(3,4-dimethoxy-phenyl)-benzoxazol-6-yl]-5-ethyl-4,5-dihydro-2H-pyridazin-3-one] | 460
11 | CCC1CC(=O)NN=C1c1ccc2nc(-c3ccccc3)oc2c1 (centres unmarked) [Example 29, 5-ethyl-6-(2-phenyl-benzoxazol-6-yl)-4,5-dihydro-2H-pyridazin-3-one] | 181
12 | CCC1CC(=O)NN=C1c1ccc2nc(-c3ccc(OC4CCOCC4)cc3)oc2c1 (centres unmarked) [Example 105, 5-ethyl-6-{2-[4-(tetrahydro-pyran-4-yloxy)-phenyl]-benzoxazol-6-yl}-4,5-dihydro-2H-pyridazin-3-one] | 80
13 | CCC1CC(=O)NN=C1c1ccc2nc(-c3cccc(OCc4ccccn4)c3)oc2c1 (centres unmarked) [Example 65, 5-ethyl-6-{2-[3-(pyridin-2-ylmethoxy)-phenyl]-benzoxazol-6-yl}-4,5-dihydro-2H-pyridazin-3-one] | 426
14 | CCC1CC(=O)NN=C1c1ccc2nc(-c3ccc(OCCN4CCN(C(=O)OC(C)(C)C)CC4)cc3)oc2c1 (centres unmarked) [Example 165, terl-butyl 4-(2-{4-[6-(4-ethyl-6-oxo-1,4,5,6-tetrahydro-pyridazin-3-yl)-benzoxazol-2-yl]-phenoxy}-ethyl)-piperazine-1-carboxylate] | 118
15 | C=CCC1CC(c2ccc3nc(-c4ccccc4)oc3c2)=NNC1=O (centres unmarked) [Example 7, 4-allyl-6-(2-phenyl-benzoxazol-6-yl)-4,5-dihydro-2H-pyridazin-3-one] | 892
16 | CCC1CC(=O)NN=C1c1ccc2nc(-c3ccc(OCCC4CCCCC4)cc3)oc2c1 (centres unmarked) [Example 56, 6-{2-[4-(2-cyclohexyl-ethoxy)-phenyl]-benzoxazol-6-yl}-5-ethyl-4,5-dihydro-2H-pyridazin-3-one] | 170
17 | CCC1CC(=O)NN=C1c1ccc2nc(-c3ccc(CCc4ccccc4)cc3)oc2c1 (centres unmarked) [Example 76, 5-ethyl-6-[2-(4-phenethyl-phenyl)-benzoxazol-6-yl]-4,5-dihydro-2H-pyridazin-3-one] | 245
18 | CCC1CC(=O)NN=C1c1ccc2nc(-c3ccc(OC[C@@H]4CCCN4)cc3)oc2c1 (some centres unmarked) [Example 238, 5-ethyl-6-{2-[4-(S-pyrrolidin-2-yl-methoxy)-phenyl]-benzoxazol-6-yl}-4,5-dihydro-2H-pyridazin-3-one×HCl] | 2950
19 | O=C1CCC(c2ccc3nc(-c4ccco4)oc3c2)=NN1 [Example 112, 6-(2-furan-2-yl-benzoxazol-6-yl)-4,5-dihydro-2H-pyridazin-3-one] | 1320

The next lines start with the values.

Row | EC50 [nM] | SMILES
20 | 890 | CC1CC(=O)NN=C1c1ccc2nc(-c3cccc(O)c3)oc2c1 (centres unmarked) [Example 38, 6-[2-(3-hydroxy-phenyl)-benzoxazol-6-yl]-5-methyl-4,5-dihydro-2H-pyridazin-3-one]
21 | 438 | CCC1CC(=O)NN=C1c1ccc2nc(-c3ccc(OCCN(C)C(C)C)cc3)oc2c1 (centres unmarked) [Example 219, 5-ethyl-6-(2-{4-[2-(isopropyl-methyl-amino)-ethoxy]-phenyl}-benzoxazol-6-yl)-4,5-dihydro-2H-pyridazin-3-one]
22 | 6770 | CC1CC(=O)NN=C1c1ccc2nc(-c3cccc(OCC4CCNCC4)c3)oc2c1 (centres unmarked) [Example 73, 5-methyl-6-{2-[3-(piperidin-4-ylmethoxy)-phenyl]-benzoxazol-6-yl}-4,5-dihydro-2H-pyridazin-3-one hydrochloride]
23 | 621 | CCC1CC(=O)NN=C1c1ccc2nc(-c3ccc(OCCN4CCN(C(C)CC)CC4)cc3)oc2c1 (centres unmarked) [Example 166, 6-(2-{4-[2-(4-sec-butyl-piperazin-1-yl)-ethoxy]-phenyl}-benzoxazol-6-yl)-5-ethyl-4,5-dihydro-2H-pyridazin-3-one]
24 | 264 | Cc1ccc(-c2nc3ccc(C4=NNC(=O)C5CC45)cc3o2)cc1C (centres unmarked) [Example 14, 5-[2-(3,4-dimethyl-phenyl)-benzoxazol-6-yl]-3,4-diaza-bicyclo[4.1.0]hept-4-en-2-one]
25 | 122 | CCC1CC(=O)NN=C1c1ccc2nc(-c3ccc(OCCOC)cc3)oc2c1 (centres unmarked) [Example 214, 5-ethyl-6-{2-[4-(2-methoxy-ethoxy)-phenyl]-benzoxazol-6-yl}-4,5-dihydro-2H-pyridazin-3-one]
26 | 962 | CCC[C@@H]1C(=O)NN=C(c2ccc3nc(-c4ccc(O)cc4)oc3c2)[C@H]1C [Example 203]
27 | 391 | O=C1NN=C(N2CCc3nc(-c4ccccc4)oc3C2)C2CC12 (centres unmarked) [Example 135, 5-(2-phenyl-4,5,6,7-tetrahydro-4H-oxazolo[5,4-c]pyridin-5-yl)-3,4-diaza-bicyclo[4.1.0]hept-4-en-2-one]
28 | 2370 | C[C@@H]1C(c2ccc3nc(-c4ccccc4)oc3c2)=NNC(=O)[C@@H]1C [Example 25, (4R,5S)-4,5-dimethyl-6-(2-phenyl-benzoxazol-6-yl)-4,5-dihydro-2H-pyridazin-3-one]
29 | > 10000 | Cc1cc(C2=NNC(=O)C3CC23)cc2oc(-c3ccccc3)nc12 (centres unmarked) [Example 11, 5-(4-methyl-2-phenyl-benzoxazol-6-yl)-3,4-diaza-bicyclo[4.1.0]hept-4-en-2-one]
30 | 9380 | Cc1cc(=O)[nH]nc1-c1ccc2nc(-c3cccs3)oc2c1 [Example 256, 5-methyl-6-(2-thiophen-2-yl-benzoxazol-6-yl)-2H-pyridazin-3-one]
31 | 133 | CC[C@@H]1CC(=O)NN=C1N1CCc2nc(-c3ccccc3)oc2C1 [Example 202, (5R)-5-ethyl-6-{2-phenyl-4H,5H,6H,7H-pyrido[4.3-d][1.3]oxazol-5-yl}-2,3,4,5-tetrahydropyridazin-3-one]
32 | 1190 | CCC1CC(=O)NN=C1c1ccc2nc(-c3cccc(OC(C)CN4CCCCC4)c3)oc2c1 (centres unmarked) [Example 230, 5-ethyl-6-{2-[3-(1-methyl-2-piperidin-1-yl-ethoxy)-phenyl]-benzoxazol-6-yl}-4,5-dihydro-2H-pyridazin-3-one]
33 | 69 | CCC1CC(=O)NN=C1c1ccc2nc(-c3ccc(OCC(C)(C)N4CCOCC4)cc3)oc2c1 (centres unmarked) [Example 232, 5-ethyl-6-{2-[4-(2-methyl-2-morpholin-4-yl-propoxy)-phenyl]-benzoxazol-6-yl}-4,5-dihydro-2H-pyridazin-3-one]
34 | 1040 | CCC[C@H]1C(=O)NN=C(c2ccc3nc(-c4ccc(OCCN(C(C)C)C(C)C)cc4)oc3c2)[C@H]1C (relative stereo) [Example 169, cis-6-{2-[4-(2-diisopropylamino-ethoxy)-phenyl]-benzoxazol-6-yl}-5-methyl-4-propyl-4,5-dihydro-2H-pyridazin-3-one]
35 | 3010 | CCC1CC(=O)NN=C1c1ccc2nc(-c3ccc(OCCN4CCN(C(C)C)CC4)cc3)oc2c1 (centres unmarked) [Example 168, 5-ethyl-6-(2-{4-[2-(4-isopropyl-piperazin-1-yl)-ethoxy]-phenyl}-benzoxazol-6-yl)-4,5-dihydro-2H-pyridazin-3-one]
36 | 1350 | CC(C)(C)OC(=O)N1CCN(Cc2ccc(-c3nc4ccc(C5=NNC(=O)C6CC56)cc4o3)cc2)CC1 (centres unmarked) [Example 23, tert.butyl 4-{4-[6-(5-oxo-3,4-diaza-bicyclo[4.1.0]hept-2-en-2-yl)-benzoxazol-2-yl]-benzyl}-piperazine-1-carboxylate]
37 | 7750 | CCC1CC(=O)NN=C1c1ccc2nc(-c3cccc(OCCN4CCN(C(=O)OC(C)(C)C)CC4)c3)oc2c1 (centres unmarked) [Example 155, tert-butyl 4-(2-{3-[6-(4-ethyl-6-oxo-1,4,5,6-tetrahydro-pyridazin-3-yl)-benzoxazol-2-yl]-phenoxy}-ethyl)-piperazine-1-carboxylate]
38 | 294 | CCC1CC(=O)NN=C1c1ccc2nc(-c3ccc(OC)c(F)c3)oc2c1 (centres unmarked) [Example 98, 5-ethyl-6-[2-(3-fluoro-4-methoxy-phenyl)-benzoxazol-6-yl]-4,5-dihydro-2H-pyridazin-3-one]
